What follows are molecules tested against T1, chimeric human H3 receptor (Homo sapiens, UniProt Q9Y5N1, E19D) (assay: Chimeric human H3 receptor GTP binding assay (agonist-stimulated GTP-gamma35S binding, Example 7)). Settings: not given.
T1 construct: made in house; host or cells: Sf9 insect cells (baculovirus infection); P2 membrane preparation
T1 sequence (Q9Y5N1 with tags, fused parts or gaps E19D): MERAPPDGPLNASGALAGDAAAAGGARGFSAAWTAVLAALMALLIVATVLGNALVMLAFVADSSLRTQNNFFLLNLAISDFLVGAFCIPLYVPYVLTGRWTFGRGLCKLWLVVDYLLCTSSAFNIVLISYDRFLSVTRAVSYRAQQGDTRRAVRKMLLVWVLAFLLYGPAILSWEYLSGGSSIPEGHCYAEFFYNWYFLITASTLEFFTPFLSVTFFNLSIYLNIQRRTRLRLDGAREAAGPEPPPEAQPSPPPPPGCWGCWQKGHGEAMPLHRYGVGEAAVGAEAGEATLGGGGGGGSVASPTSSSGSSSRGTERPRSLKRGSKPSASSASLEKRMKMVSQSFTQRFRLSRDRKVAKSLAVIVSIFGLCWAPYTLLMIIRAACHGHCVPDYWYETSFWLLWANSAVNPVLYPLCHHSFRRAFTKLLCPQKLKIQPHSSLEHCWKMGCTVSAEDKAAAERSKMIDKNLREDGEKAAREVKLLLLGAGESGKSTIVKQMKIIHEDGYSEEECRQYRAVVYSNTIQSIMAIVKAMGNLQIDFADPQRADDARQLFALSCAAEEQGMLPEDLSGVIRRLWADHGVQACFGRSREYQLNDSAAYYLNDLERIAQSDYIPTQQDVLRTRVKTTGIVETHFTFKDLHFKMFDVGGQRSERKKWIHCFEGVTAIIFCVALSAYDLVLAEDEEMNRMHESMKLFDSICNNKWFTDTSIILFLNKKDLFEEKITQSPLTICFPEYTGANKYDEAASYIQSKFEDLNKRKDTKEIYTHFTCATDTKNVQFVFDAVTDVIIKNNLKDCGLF
Format: biochemical
Procedure, shortened: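 IC50 values come from non-linear regression of dose-response curves of filter-bound GTP-gamma^35S, counted by scintillation. Membranes were from infected Sf9 cells carrying receptor plus G-protein subunits, 35 μg/tube, with 10 μM GDP present.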
For O=C(CN1CCN(c2ccc(C(F)(F)F)cc2)CC1)N1CCN(C2CCCCC2)CC1 [Compound 803, 1-cyclohexyl-4-({4-[4-(trifluoromethyl)phenyl]piperazin-1-yl}acetyl)piperazine], the Ki was < 1000 nM.

Same assay, conditions: Table II "Ki", symbol "*": Ki in the assay of Example 7; read-out: Ki
With O=C(CN1CCN(c2cccc(-c3ccc(F)cc3)c2)CC1)N1CCN(C2CCC2)CC1 [Compound 773, 1-cyclobutyl-4-{[4-(4′-fluorobiphenyl-3-yl)piperazin-1-yl]acetyl}piperazine] the Ki was < 1000 nM.
In the case of O=C(CN1CCN(c2ccc(-c3ccc(F)cc3)cc2)CC1)N1CCN(C2CCC2)CC1 [Compound 774, 1-cyclobutyl-4-{[4-(4′-fluorobiphenyl-4-yl)piperazin-1-yl]acetyl}piperazine], the Ki is reported as < 1000 nM.
For O=C(CN1CCN(c2ccc(F)cc2)CC1)N1CCN(C2CCC2)CC1 [Compound 775, 1-cyclobutyl-4-{[4-(4-fluorophenyl)piperazin-1-yl]acetyl}piperazine], the Ki was < 1000 nM.
For CC(C)c1ccc(-c2ccc(N3CCN(CC(=O)N4CCN(C5CCC5)CC4)CC3)cc2)cc1 [Compound 778, 1-cyclobutyl-4-{[4-(4′-isopropylbiphenyl-4-yl)piperazin-1-yl]acetyl}piperazine], the Ki was < 1000 nM.
COc1ccc(-c2ccc(N3CCN(CC(=O)N4CCN(C5CCC5)CC4)CC3)cc2)c(C)c1 [Compound 779, 1-cyclobutyl-4-{[4-(4′-methoxy-2′-methylbiphenyl-4-yl)piperazin-1-yl]acetyl}piperazine] was tested, and the Ki was < 1000 nM.
For COc1ccc(-c2ccc(N3CCN(CC(=O)N4CCN(C5CCC5)CC4)CC3)cc2)cc1C [Compound 780, 1-cyclobutyl-4-{[4-(4′-methoxy-3′-methylbiphenyl-4-yl)piperazin-1-yl]acetyl}piperazine], the Ki was < 1000 nM.
With COc1ccc(-c2ccc(N3CCN(CC(=O)N4CCN(C5CCC5)CC4)CC3)cc2)cc1 [Compound 781, 1-cyclobutyl-4-{[4-(4′-methoxybiphenyl-4-yl)piperazin-1-yl]acetyl}piperazine] the Ki was < 1000 nM.
For COc1ccc(N2CCN(CC(=O)N3CCN(C4CCC4)CC3)CC2)cc1 [Compound 782, 1-cyclobutyl-4-{[4-(4-methoxyphenyl)piperazin-1-yl]acetyl}piperazine], the Ki was < 1000 nM.
With Cc1ccc(-c2ccc(N3CCN(CC(=O)N4CCN(C5CCC5)CC4)CC3)cc2)cc1 [Compound 784, 1-cyclobutyl-4-{[4-(4′-methylbiphenyl-4-yl)piperazin-1-yl]acetyl}piperazine] the Ki was < 1000 nM.
For Cc1ccc(N2CCN(CC(=O)N3CCN(C4CCC4)CC3)CC2)cc1 [Compound 785, 1-cyclobutyl-4-{[4-(4-methylphenyl)piperazin-1-yl]acetyl}piperazine], the Ki was < 1000 nM.
With O=C(CN1CCN(c2ccc([N+](=O)[O-])cc2)CC1)N1CCN(C2CCC2)CC1 [Compound 786, 1-cyclobutyl-4-{[4-(4-nitrophenyl)piperazin-1-yl]acetyl}piperazine] the Ki was < 1000 nM.
For O=C(CN1CCN(c2ccc(-c3ccc(Oc4ccccc4)cc3)cc2)CC1)N1CCN(C2CCC2)CC1 [Compound 787, 1-cyclobutyl-4-{[4-(4′-phenoxybiphenyl-4-yl)piperazin-1-yl]acetyl}piperazine], the Ki was < 1000 nM.
In the case of CCCOc1ccc(-c2ccc(N3CCN(CC(=O)N4CCN(C5CCC5)CC4)CC3)cc2)cc1 [Compound 789, 1-cyclobutyl-4-{[4-(4′-propoxybiphenyl-4-yl)piperazin-1-yl]acetyl}piperazine], the Ki is reported as < 1000 nM.
With O=C(CN1CCN(c2ccc(-c3ccncc3)cc2)CC1)N1CCN(C2CCC2)CC1 [Compound 791, 1-cyclobutyl-4-{[4-(4-pyridin-4-ylphenyl)piperazin-1-yl]acetyl}piperazine] the Ki was < 1000 nM.
In the case of COc1ccc(F)cc1-c1ccc(N2CCN(CC(=O)N3CCN(C4CCC4)CC3)CC2)cc1 [Compound 792, 1-cyclobutyl-4-{[4-(5′-fluoro-2′-methoxybiphenyl-4-yl)piperazin-1-yl]acetyl}piperazine], the Ki is reported as < 1000 nM.
For COc1ccc(C(C)C)cc1-c1ccc(N2CCN(CC(=O)N3CCN(C4CCC4)CC3)CC2)cc1 [Compound 793, 1-cyclobutyl-4-{[4-(5′-isopropyl-2′-methoxybiphenyl-4-yl)piperazin-1-yl]acetyl}piperazine], the Ki was < 1000 nM.
For O=C(CN1CCN(C(=O)C2CCCO2)CC1)N1CCN(C2CCC2)CC1 (stereo not drawn) [Compound 801, 1-cyclobutyl-4-{[4-(tetrahydrofuran-2-ylcarbonyl)piperazin-1-yl]acetyl}piperazine], the Ki was < 1000 nM.

Same assay, conditions: Table II, "*" in Ki; assay of Example 7; read-out: Ki
In the case of Cc1cc(C)cc(-c2ccc(N3CCN(CC(=O)N4CCN(C5CCC5)CC4)CC3)cc2)c1 [Compound 743, 1-cyclobutyl-4-{[4-(3′,5′-dimethylbiphenyl-4-yl)piperazin-1-yl]acetyl}piperazine], the Ki is reported as < 1000 nM.
With COC[C@H]1CCCN1C(=O)c1cccc(N2CCN(CC(=O)N3CCN(C4CCC4)CC3)CC2)c1 [Compound 744, 1-cyclobutyl-4-{[4-(3-{[(2R)-2-(methoxymethyl)pyrrolidin-1-yl]car-bonyl}phenyl)piperazin-1-yl]acetyl}piperazine] the Ki was < 1000 nM.
For COC[C@@H]1CCCN1C(=O)c1cccc(N2CCN(CC(=O)N3CCN(C4CCC4)CC3)CC2)c1 [Compound 745, 1-cyclobutyl-4-{[4-(3-{[(2S)-2-(methoxymethyl)pyrrolidin-1-yl]car-bonyl}phenyl)piperazin-1-yl]acetyl}piperazine], the Ki was < 1000 nM.
With CCOc1cccc(-c2ccc(N3CCN(CC(=O)N4CCN(C5CCC5)CC4)CC3)cc2)c1 [Compound 746, 1-cyclobutyl-4-{[4-(3′-ethoxybiphenyl-4-yl)piperazin-1-yl]acetyl}piperazine] the Ki was < 1000 nM.
For CCc1cccc(-c2ccc(N3CCN(CC(=O)N4CCN(C5CCC5)CC4)CC3)cc2)c1 [Compound 747, 1-cyclobutyl-4-{[4-(3′-ethylbiphenyl-4-yl)piperazin-1-yl]acetyl}piperazine], the Ki was < 1000 nM.
With COc1ccc(-c2cccc(N3CCN(CC(=O)N4CCN(C5CCC5)CC4)CC3)c2)cc1F [Compound 749, 1-cyclobutyl-4-{[4-(3′-fluoro-4′-methoxybiphenyl-3-yl)piperazin-1-yl]acetyl}piperazine] the Ki was < 1000 nM.
For COc1ccc(-c2ccc(N3CCN(CC(=O)N4CCN(C5CCC5)CC4)CC3)cc2)cc1F [Compound 750, 1-cyclobutyl-4-{[4-(3′-fluoro-4′-methoxybiphenyl-4-yl)piperazin-1-yl]acetyl}piperazine], the Ki was < 1000 nM.
For Cc1ccc(-c2ccc(N3CCN(CC(=O)N4CCN(C5CCC5)CC4)CC3)cc2)cc1F [Compound 751, 1-cyclobutyl-4-{[4-(3′-fluoro-4′-methylbiphenyl-4-yl)piperazin-1-yl]acetyl}piperazine], the Ki was < 1000 nM.
O=C(CN1CCN(c2ccc(-c3cccc(F)c3)cc2)CC1)N1CCN(C2CCC2)CC1 [Compound 753, 1-cyclobutyl-4-{[4-(3′-fluorobiphenyl-4-yl)piperazin-1-yl]acetyl}piperazine] was tested, and the Ki was < 1000 nM.
O=C(CN1CCN(c2cccc(F)c2)CC1)N1CCN(C2CCC2)CC1 [Compound 754, 1-cyclobutyl-4-{[4-(3-fluorophenyl)piperazin-1-yl]acetyl}piperazine] was tested, and the Ki was < 1000 nM.
For CC(C)Oc1cccc(-c2ccc(N3CCN(CC(=O)N4CCN(C5CCC5)CC4)CC3)cc2)c1 [Compound 755, 1-cyclobutyl-4-{[4-(3′-isopropoxybiphenyl-4-yl)piperazin-1-yl]acetyl}piperazine], the Ki was < 1000 nM.
For CC(C)c1cccc(-c2ccc(N3CCN(CC(=O)N4CCN(C5CCC5)CC4)CC3)cc2)c1 [Compound 756, 1-cyclobutyl-4-{[4-(3′-isopropylbiphenyl-4-yl)piperazin-1-yl]acetyl}piperazine], the Ki was < 1000 nM.
In the case of COc1cccc(-c2ccc(N3CCN(CC(=O)N4CCN(C5CCC5)CC4)CC3)cc2)c1 [Compound 758, 1-cyclobutyl-4-{[4-(3′-methoxybiphenyl-4-yl)piperazin-1-yl]acetyl}piperazine], the Ki is reported as < 1000 nM.
For COc1cccc(N2CCN(CC(=O)N3CCN(C4CCC4)CC3)CC2)c1 [Compound 759, 1-cyclobutyl-4-{[4-(3-methoxyphenyl)piperazin-1-yl]acetyl}piperazine], the Ki was < 1000 nM.
For Cc1cccc(-c2ccc(N3CCN(CC(=O)N4CCN(C5CCC5)CC4)CC3)cc2)c1 [Compound 762, 1-cyclobutyl-4-{[4-(3′-methylbiphenyl-4-yl)piperazin-1-yl]acetyl}piperazine], the Ki was < 1000 nM.
In the case of Cc1cccc(N2CCN(CC(=O)N3CCN(C4CCC4)CC3)CC2)c1 [Compound 763, 1-cyclobutyl-4-{[4-(3-methylphenyl)piperazin-1-yl]acetyl}piperazine], the Ki is reported as < 1000 nM.
For COC[C@H]1CCCN1C(=O)c1ccc(N2CCN(CC(=O)N3CCN(C4CCC4)CC3)CC2)cc1 [Compound 767, 1-cyclobutyl-4-{[4-(4-{[(2R)-2-(methoxymethyl)pyrrolidin-1-yl]carbonyl}phenyl)piperazin-1-yl]acetyl}piperazine], the Ki was < 1000 nM.
For COC[C@@H]1CCCN1C(=O)c1ccc(N2CCN(CC(=O)N3CCN(C4CCC4)CC3)CC2)cc1 [Compound 768, 1-cyclobutyl-4-{[4-(4-{[(2S)-2-(methoxymethyl)pyrrolidin-1-yl]carbonyl}phenyl)piperazin-1-yl]acetyl}piperazine], the Ki was < 1000 nM.
With CCOc1ccc(-c2ccc(N3CCN(CC(=O)N4CCN(C5CCC5)CC4)CC3)cc2)cc1 [Compound 769, 1-cyclobutyl-4-{[4-(4′-ethoxybiphenyl-4-yl)piperazin-1-yl]acetyl}piperazine] the Ki was < 1000 nM.
With CCc1ccc(-c2ccc(N3CCN(CC(=O)N4CCN(C5CCC5)CC4)CC3)cc2)cc1 [Compound 770, 1-cyclobutyl-4-{[4-(4′-ethylbiphenyl-4-yl)piperazin-1-yl]acetyl}piperazine] the Ki was < 1000 nM.
In the case of Cc1cc(-c2ccc(N3CCN(CC(=O)N4CCN(C5CCC5)CC4)CC3)cc2)ccc1F [Compound 771, 1-cyclobutyl-4-{[4-(4′-fluoro-3′-methylbiphenyl-4-yl)piperazin-1-yl]acetyl}piperazine], the Ki is reported as < 1000 nM.
